{
  "source": "paper PMC7238120",
  "about": "“Strong and Selective Inhibitory Effects of the Biflavonoid Selamariscina A against CYP2C8 and CYP2C9 Enzyme Activities in Human Liver Microsomes” (Pharmaceutics, 2020)",
  "key": {"CYP2B6": {"molecular_target": "T1, CYP2B6 (Homo sapiens, UniProt P20813)", "T1 construct": "incubation mixtures containing pooled human liver microsomes (HLMs, XTreme 200, XenoTech); tissue XenoTech XTreme 200; host or cells: pooled human liver microsomes", "T1 sequence (P20813 1-491)": "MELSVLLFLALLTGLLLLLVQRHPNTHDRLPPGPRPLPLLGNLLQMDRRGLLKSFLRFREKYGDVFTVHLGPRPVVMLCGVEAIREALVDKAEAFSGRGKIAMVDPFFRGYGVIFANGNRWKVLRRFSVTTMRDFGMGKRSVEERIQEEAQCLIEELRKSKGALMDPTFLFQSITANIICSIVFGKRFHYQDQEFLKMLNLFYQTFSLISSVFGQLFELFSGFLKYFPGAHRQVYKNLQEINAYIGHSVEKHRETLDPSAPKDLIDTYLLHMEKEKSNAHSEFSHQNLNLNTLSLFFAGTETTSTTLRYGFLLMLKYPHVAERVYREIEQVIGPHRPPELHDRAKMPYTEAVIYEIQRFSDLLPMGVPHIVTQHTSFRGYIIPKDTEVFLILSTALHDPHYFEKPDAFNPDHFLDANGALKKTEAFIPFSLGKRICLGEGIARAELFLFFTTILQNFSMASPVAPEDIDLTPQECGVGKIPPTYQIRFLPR", "experiment": "Inhibition of CYP2B6-catalyzed bupropion hydroxylation in pooled human liver microsomes", "format": "in vitro ADME", "procedure": "(§1) The inhibitory potential of the five biflavonoids on the metabolism of nine P450 probe substrates was evaluated using previously developed methods with minor modifications. Biflavonoids were dissolved in methanol. The final concentration of methanol in the incubation mixture was 1.0% (v/v). We used these P450 probe substrates: phenacetin for CYP1A2, coumarin for CYP2A6, bupropion for CYP2B6, amodiaquine for CYP2C8, diclofenac for CYP2C9, omeprazole for CYP2C19, dextromethorphan for CYP2D6, chlorzoxazone for CYP2E1 and midazolam for CYP3A (Table 1). […] The reaction was stopped by adding 50 μL of ice-cold acetonitrile containing 7 nM trimipramine (internal standard, IS). After centrifugation at 18,000 g (5 min, 4 °C), aliquots of supernatants were analyzed by LC-MS/MS (Shimadzu LCMS 8060 system, Shimadzu, Kyoto, Japan). All microsomal incubations were conducted in triplicate. We used HLMs to determine the mechanisms and constants (Ki values) for […] A inhibition of CYP1A2, CYP2B6, CYP2C8, CYP2C9 and CYP3A. […] The substrates were used at concentrations approximately near to their respective Km values. […] The other conditions were the same as in the cytochrome P450 inhibition study. […] Phenomenex, Torrance, CA, USA) and analyzed using a Shimadzu LCMS 8060 triple-quadrupole mass spectrometer coupled with a Nexera X2 ultra high-performance liquid chromatography system (Shimadzu, Kyoto, Japan) equipped with an electrospray ionization interface. The mobile phase consisted of 0.1% formic acid in water (A) and 0.1% formic acid in acetonitrile (B). […] The flow rate was 0.2 mL/min. Electrospray ionization was performed in positive-ion mode at 4000 V or in negative-ion mode at -3500 V. […] Quantitation was conducted in selected reaction monitoring (SRM) modes with the precursor-to-product ion transition for each metabolite (Table 1 and Table 2). We analyzed the data with Shimadzu LabSolution LC-MS software. The IC50 values were calculated by WinNonlin software (Pharsight, Mountain View, CA, USA). The type of inhibition and the apparent kinetic parameters for inhibitory activity (Ki) were determined by following several criteria: visual inspection of Dixon plots, Lineweaver-Burk double reciprocal plots, and secondary plots of Lineweaver-Burk plots versus biflavonoid concentrations, the size of the sum of squares of the residuals, Akaike Information Criteria values, the S.E. and 95% confidence interval of the parameter estimates from the nonlinear regression analysis using the WinNonlin software. The models tested included competitive, competitive partial, noncompetitive, noncompetitive partial, uncompetitive, uncompetitive partial, and mixed-type inhibition."}, "CYP2C9": {"molecular_target": "CYP2C9 (Homo sapiens, UniProt P11712)", "sequence (P11712 whole entry)": "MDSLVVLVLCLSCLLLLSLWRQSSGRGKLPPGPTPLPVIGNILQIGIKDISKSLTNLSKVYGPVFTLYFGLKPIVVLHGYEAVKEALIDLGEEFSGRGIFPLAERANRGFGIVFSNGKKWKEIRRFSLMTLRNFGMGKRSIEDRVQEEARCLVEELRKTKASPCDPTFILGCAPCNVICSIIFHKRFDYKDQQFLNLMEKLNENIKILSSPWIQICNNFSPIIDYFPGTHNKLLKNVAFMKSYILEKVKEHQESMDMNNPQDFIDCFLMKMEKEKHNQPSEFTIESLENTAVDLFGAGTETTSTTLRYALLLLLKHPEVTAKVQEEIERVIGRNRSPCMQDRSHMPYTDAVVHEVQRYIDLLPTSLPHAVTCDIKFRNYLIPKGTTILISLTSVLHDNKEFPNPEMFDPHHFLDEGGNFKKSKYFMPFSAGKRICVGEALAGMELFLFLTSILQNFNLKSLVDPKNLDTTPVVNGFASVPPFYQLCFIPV", "experiment": "Inhibition of CYP2C9-catalyzed diclofenac 4-hydroxylation in pooled human liver microsomes", "format": "in vitro ADME", "set-up": "incubation mixtures containing pooled human liver microsomes (HLMs, XTreme 200, XenoTech); tissue XenoTech XTreme 200; host or cells: pooled human liver microsomes", "procedure": "as §1"}, "[1]": {"conditions": "substrate bupropion 50 µM, pooled HLMs, read-out: IC50, P450 2B6"}, "[2]": {"conditions": "substrate diclofenac 10 µM, pooled HLMs, read-out: IC50, P450 2C9"}, "[3]": {"conditions": "HLMs, average ± standard error, triplicate"}},
  "note": "Where two headings read alike, the source gives them in different places.",
  "data": [
    {"molecule": "O=c1cc(-c2ccc(O)c(-c3c(O)cc(O)c4c(=O)cc(-c5ccc(O)cc5)oc34)c2)oc2cc(O)cc(O)c12", "note": "[amentoflavone]", "values": [
      {"measurement": "IC50", "setting": "CYP2B6", "value": 7.1, "unit": "µM"},
      {"measurement": "IC50", "setting": "CYP2C9", "value": 0.15, "unit": "µM"}
    ]},
    {"molecule": "O=c1cc(-c2ccc(O)cc2)oc2c(-c3c(O)cc(O)c4c(=O)cc(-c5ccc(O)cc5)oc34)c(O)cc(O)c12", "note": "[cupressuflavone]", "values": [
      {"measurement": "IC50", "setting": "CYP2B6; [1]", "value": 6.7, "unit": "µM"},
      {"measurement": "IC50", "setting": "CYP2C9; [2]", "value": 0.21, "unit": "µM"}
    ]},
    {"molecule": "CC(C)(O)c1ccccc1CC[C@@H](SCC1(CC(=O)O)CC1)c1cccc(/C=C/c2ccc3ccc(Cl)cc3n2)c1", "note": "[montelukast, reference compound]", "values": [
      {"measurement": "inhibition at 10 min, 5 µM", "setting": "CYP2B6; human, pooled human liver microsomes, probe bupropion, inhibitor 5 μM, pooled HLMs", "value": 20.4, "unit": "%"},
      {"measurement": "IC50", "setting": "CYP2B6; [1]", "value": "> 50", "unit": "µM"},
      {"measurement": "inhibition at 10 min, 5 µM", "setting": "CYP2C9; human, pooled human liver microsomes, probe diclofenac, inhibitor 5 μM, pooled HLMs", "value": 31, "unit": "%"},
      {"measurement": "IC50", "setting": "CYP2C9; [2]", "value": 9.73, "unit": "µM"}
    ]},
    {"molecule": "O=c1cc(-c2ccc(O)c(-c3c(O)cc4oc(-c5ccc(O)cc5)cc(=O)c4c3O)c2)oc2cc(O)cc(O)c12", "note": "[robustaflavone]", "values": [
      {"measurement": "IC50", "setting": "CYP2B6; [1]", "value": 5.7, "unit": "µM"},
      {"measurement": "IC50", "setting": "CYP2C9; [2]", "value": 0.15, "unit": "µM"}
    ]},
    {"molecule": "O=C1CC(c2cc(-c3c(O)ccc4c(=O)cc(-c5ccc(O)cc5)oc34)c(O)cc2O)Oc2cc(O)cc(O)c21", "note": "(stereo not shown) [selamariscina A]", "values": [
      {"measurement": "Mode of Inhibition, CYP2B6 bupropion", "setting": "CYP2B6; HLMs", "value": "Noncompetitive"},
      {"measurement": "Ki", "setting": "CYP2B6; [3]", "value": "7.9 ± 1.1", "unit": "µM"},
      {"measurement": "IC50", "setting": "CYP2B6; [1]", "value": 5.3, "unit": "µM"},
      {"measurement": "Mode of Inhibition, CYP2C9 diclofenac", "setting": "CYP2C9; HLMs", "value": "Competitive"},
      {"measurement": "Ki", "setting": "CYP2C9; [3]", "value": "0.032 ± 0.007", "unit": "µM"},
      {"measurement": "inhibition at 10 min, 0.5 µM", "setting": "CYP2C9; human, pooled human liver microsomes, probe diclofenac, inhibitor 0.5 μM, pooled HLMs", "value": 88.6, "unit": "%"},
      {"measurement": "IC50", "setting": "CYP2C9; [2]", "value": 0.047, "unit": "µM"}
    ]},
    {"molecule": "O=c1cc(-c2ccc(O)c(-c3c(-c4ccc(O)cc4)oc4cc(O)cc(O)c4c3=O)c2)oc2cc(O)cc(O)c12", "note": "[taiwaniaflavone]", "values": [
      {"measurement": "IC50", "setting": "CYP2B6; [1]", "value": 6.4, "unit": "µM"},
      {"measurement": "IC50", "setting": "CYP2C9; [2]", "value": 0.2, "unit": "µM"}
    ]}
  ]
}
